Data reported in patent US10010547B2 (CASCADIAN THERAPEUTICS, INC., priority 2014, dated 2018).
Counter-ions that a name gives are not always drawn. Like-named read-outs stand apart in the source and are kept apart here.

How the values were obtained:
Chk-1 kinase = Chk-1 kinase (Homo sapiens (Human), UniProt O14757); assay: Chk-1 Kinase Inhibiting Activity (33P-ATP filter assay, CHKtide substrate); format: biochemical
Protocol: Chk-1 Kinase Inhibiting Activity
The compounds of the invention were tested for activity against Chk-1 kinase using the materials and protocols set out below.
Base Reaction buffer: 20 mM Hepes (pH 7.5), 10 mM MgCl2, 1 mM EGTA, 0.02% Brij35, 0.02 mg/ml BSA, 0.1 mM Na3VO4, 2 mM DTT, 1% DMSO
*Required cofactors are added individually to each kinase reaction
(i) Prepare indicated substrate in freshly prepared Base Reaction Buffer
(ii) Deliver any required cofactors to the substrate solution above
(iii) Deliver indicated kinase into the substrate solution and gently mix
(iv) Deliver compounds in DMSO into the kinase reaction mixture
(v) Deliver ^33P-ATP (specific activity 0.01 μCi/μl final) into the reaction mixture to initiate the reaction.
(vi) Incubate kinase reaction for 120 minutes at room temperature
(vii) Reactions are spotted onto P81 ion exchange paper (Whatman #3698-915)
(viii) Wash filters extensively in 0.1% phosphoric acid.
(ix) Dry filters and measure counts in scintillation counter
Recombinant full length construct, N-terminal GST tagged, purified from insect cells.
No special measures were taken to activate this kinase.
Final concentration in assay=0.5 nM
Peptide sequence: [[…]]
Final concentration in assay=20 μM
No additional cofactors are added to the reaction mixture
From the results obtained by following the above protocol, the IC50 values against Chk-1 kinase of each of the compounds of Examples 1-153 were determined and these are shown in Table 3.

MIA PaCa-2 cells = assay: Gemcitabine Combination Cell Assay (Cell Titer Glo); format: cell-based; settings: for IC50: Homo sapiens; for 10xLS: approximate concentration of Chk1 inhibitor that results in a 10-fold reduction in the IC50 of gemcitabine alone; for 2xLS: approximate concentration of Chk1 inhibitor that results in a two-fold reduction in the IC50 of gemcitabine alone
Protocol: Gemcitabine Combination Cell Assay
Exponentially growing MIA PaCa-2 (ATCC CRL-1420) cells are treated with trypsin to remove cells from the plate surface. Approximately 10,000 cells/well are plated in 96 well plates in RPMI containing 10% fetal bovine serum, 1% sodium pyruvate and 1% L-GlutaMax. Cells are allowed to adhere to the plate surface overnight. Serial half-log dilutions of Chk1 inhibitor test compounds and gemcitabine are made with a final highest concentration of 3000 nM and 100 nM, respectively. Chk1 inhibitors and gemcitabine are combined so that each concentration of Chk1 inhibitor is added to each concentration of gemcitabine. Each drug is also tested as a single agent. Drugs are added to adherent cells (in duplicate) and incubated for 72 h. At 72 h the cells are treated with Promega Cell Titer Glo reagent for approximately 15 minutes. Luminescence (relative light units, RLU) is recorded using a BMG Polarstar Omega plate reader. The single agent concentration that results in a 50% reduction in total signal (IC50) is calculated using PRISM software and a four-parameter non-linear regression curve fit. For combination studies the RLUs are plotted using PRISM on an XY plot with the gemcitabine concentration on the X axis and RLU on the Y axis. The RLU for each concentration of Chk1 inhibitor is plotted as a function of gemcitabine concentration. The IC50 for gemcitabine alone and at each concentration of Chk1 is determined using a four-parameter non-linear regression curve fit. The approximate concentration of Chk1 inhibitor that results in a two and ten-fold reduction in the IC50 of gemcitabine alone is calculated as an indication of synergistic potency.
From the results obtained by following the above protocol, the IC50 values against MIAPaca-2 cells of the Chk1 inhibitor alone (Chk1 IC50), the approximate concentration of Chk1 inhibitor that results in a two-fold (2×LS) and a 10-fold (10×LS) reduction in the IC50 of gemcitabine alone of each of the compounds of Examples 1-154 are shown in Table 4.

[1] = against Chk-1 kinase, read-out: IC50
[2] = Chk1 inhibitor alone, MIA PaCa-2 cells, 72 h, read-out: Chk1 IC50
[3] = MIA PaCa-2, 72 h, read-out: Chk1 IC50 (nM)

Chain of Chk-1 kinase (O14757 whole entry): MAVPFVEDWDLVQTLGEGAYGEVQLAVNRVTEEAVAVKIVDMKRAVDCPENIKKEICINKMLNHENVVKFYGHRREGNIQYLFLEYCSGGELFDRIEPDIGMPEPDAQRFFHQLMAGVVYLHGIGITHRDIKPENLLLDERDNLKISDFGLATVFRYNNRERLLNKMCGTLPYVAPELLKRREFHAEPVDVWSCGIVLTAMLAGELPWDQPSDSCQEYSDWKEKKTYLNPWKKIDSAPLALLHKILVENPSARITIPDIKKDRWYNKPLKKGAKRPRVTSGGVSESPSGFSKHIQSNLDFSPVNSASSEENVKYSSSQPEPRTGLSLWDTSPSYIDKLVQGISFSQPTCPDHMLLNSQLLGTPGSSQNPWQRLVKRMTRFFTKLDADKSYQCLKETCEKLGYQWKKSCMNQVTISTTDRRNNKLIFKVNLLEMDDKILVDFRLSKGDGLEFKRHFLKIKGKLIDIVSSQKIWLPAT

SMILES | IC50 (Chk-1 kinase; [1]) [nM] | IC50 (MIA PaCa-2 cells; [2]) [nM] | 10xLS (MIA PaCa-2 cells; MIA PaCa-2 cells, 72 h) [nM] | 2xLS (MIA PaCa-2 cells; MIA PaCa-2 cells, 72 h) [nM] | IC50 (Chk-1 kinase) [nM] | IC50 (MIA PaCa-2 cells; [3]) [nM]
COc1cc(OC2CCNCC2)ccc1-c1cc(Nc2cnc(C#N)cn2)n[nH]1 [Example 57, 5-[[5-[2-methoxy-4-(4-piperidyloxy)phenyl]-1H-pyrazol-3-yl]amino]pyrazine-2-carbonitrile] | 0.071 | 337 | 100 | 3 |  | 
CCN1CCC(Nc2ccc(-c3cc(Nc4cnc(C#N)cn4)n[nH]3)c(OC)c2)CC1 [Example 111, 5-[[5-[4-[(1-ethyl-4-piperidyl)amino]-2-methoxy-phenyl]-1H-pyrazol-3-yl]amino]pyrazine-2-carbonitrile] | 0.0052 | 184 | 100 | <3 |  | 
N#Cc1cnc(Nc2cc(-c3ccc(N4CCNCC4)cc3OC(F)(F)F)[nH]n2)cn1 [Example 153] |  | 1200 | 1000 | 100 | 3.8 | 
COc1cc(NCc2ccccc2)cc(OC)c1-c1cc(Nc2cnc(C#N)cn2)n[nH]1 [Example 1, 5-[5-(4-Benzylamino-2,6-dimethoxy-phenyl)-1H-pyrazol-3-ylamino]-pyrazine-2-carbonitrile] | 2.8 | 5390 | 1000 | 100 |  | 
COc1cc(CNC(C)(C)CN2CCOCC2)ccc1-c1cc(Nc2cnc(C#N)cn2)n[nH]1 [Example 19, 5-[[5-[4-[[(1,1-dimethyl-2-morpholino-ethyl)amino]methyl]-2-methoxy-phenyl]-1H-pyrazol-3-yl]amino]pyrazine-2-carbonitrile] | 0.29 | 1610 | ~200 | 3 |  | 
COc1cc(CN(C)C2CCOC2)ccc1-c1cc(Nc2cnc(C#N)cn2)n[nH]1 (stereo not drawn) [Example 73, 5-[[5-[2-methoxy-4-[[methyl(tetra hydrofuran-3-yl)amino]methyl]phenyl]-1H-pyrazol-3-yl]amino]pyrazine-2-carbonitrile] | 0.28 | 354 | 300 | 10 |  | 
COc1cc(O[C@H]2CCN(C(C)C)C2)ccc1-c1cc(Nc2cnc(C#N)cn2)n[nH]1 [Example 94, 5-[[5-[4-[(3S)-1-isopropylpyrrolidin-3-yl]oxy-2-methoxy-phenyl]-1H-pyrazol-3-yl]amino]pyrazine-2-carbonitrile] | 0.18 | 475 | 100 | 3 |  | 
COc1cc(C2CCN(C)CC2)ccc1-c1cc(Nc2cnc(C)cn2)n[nH]1 [Example 26, N-[5-[2-methoxy-4-(1-methyl-4-piperidyl)phenyl]-1H-pyrazol-3-yl]-5-methyl-pyrazin-2-amine] | 10 | 5580 | >3000 | 1000 |  | 
COc1cc(CNC2CC2)ccc1-c1cc(Nc2cnc(C#N)cn2)n[nH]1 [Example 91, 5-[[5-[4-[(cyclopropylamino)methyl]-2-methoxy-phenyl]-1H-pyrazol-3-yl]amino]pyrazine-2-carbonitrile] | 0.33 | 411 | <100 | <3 |  | 
COc1cc(CNCc2ccc(F)cc2)ccc1-c1cc(Nc2cnc(C#N)cn2)n[nH]1 [Example 8, 5-(5-{4-[(4-fluoro-benzylamino)-methyl]-2-methoxy-phenyl}-1H-pyrazol-3-ylamino)-pyrazine-2-carbonitrile] | 0.058 | 259 | ~200 | 10 |  | 
COc1cc(NCC2CCN(C)CC2)ccc1-c1cc(Nc2cnc(C#N)cn2)n[nH]1 [Example 107, 5-[[5-[2-Methoxy-4-[(1-methyl-4-piperidyl)methylamino]phenyl]-1H-pyrazol-3-yl]amino]pyrazine-2-carbonitrile hydrochloride] | 0.081 |  | 100 | 3 |  | 160
COc1cc(C2CCN(C)CC2)ccc1-c1cc(Nc2ccc(C#N)nc2)n[nH]1.Cl [Example 24, 5-[[5-[2-methoxy-4-(1-methyl-4-piperidyl)phenyl]-1H-pyrazol-3-yl]amino]pyridine-2-carbonitrile hydrochloride] | 0.24 | 934 | 300 | 10 |  | 
COc1cc(NCCN2CCOCC2)ccc1-c1cc(Nc2cnc(C#N)cn2)n[nH]1 [Example 16, 5-[[5-[2-methoxy-4-(2-morpholinoethylamino)phenyl]-1H-pyrazol-3-yl]amino]pyrazine-2-carbonitrile] | 0.085 | 1800 | 100 | <3 |  | 
COc1cc(C2CCNCC2)ccc1-c1cc(Nc2cnc(C#N)cn2)n[nH]1 [Example 20, 5-[[5-[2-methoxy-4-(4-piperidyl)phenyl]-1H-pyrazol-3-yl]amino]pyrazine-2-carbonitrile] | 0.29 | 1110 | 100 | ~5 |  | 
COc1cc(C2CCN(C(C)C)CC2)ccc1-c1cc(Nc2cnc(C#N)cn2)n[nH]1 [Example 61, 5-[[5-[4-(1-isopropyl-4-piperidyl)-2-methoxy-phenyl]-1H-pyrazol-3-yl]amino]pyrazine-2-carbonitrile] | 0.1 | 251 | 100 | 2 |  | 
COc1cc(OCC2CCCN2C)ccc1-c1cc(Nc2cnc(C#N)cn2)n[nH]1 (stereo not drawn) [Example 35, 5-[[5-[2-methoxy-4-[(1-methylpyrrolidin-2-yl)methoxy]phenyl]-1H-pyrazol-3-yl]amino]pyrazine-2-carbonitrile] | 0.14 | 217 | 100 | 3 |  | 
COc1cc(CN[C@H](C)c2ccc(F)cc2)ccc1-c1cc(Nc2cnc(C#N)cn2)n[nH]1 [Example 7, 5-[5-(4-{[(R)-1-(4-fluoro-phenyl)-ethylamino]-methyl}-2-methoxy-phenyl)-1H-pyrazol-3-ylamino]-pyrazine-2-carbonitrile] | 0.1 | 208 | ~200 | 10 |  | 
COc1cc(N2CCNCC2)cc(OC)c1-c1cc(Nc2cnc(C#N)cn2)n[nH]1 [Example 121, 5-[[5-(2,6-dimethoxy-4-piperazin-1-yl-phenyl)-1H-pyrazol-3-yl]amino]pyrazine-2-carbonitrile] | 0.15 | 177 | <100 | 3 |  | 
COc1cc(CN2CCOCC2)ccc1-c1cc(Nc2cnc(C#N)cn2)n[nH]1 [Example 102, 5-[[5-[2-methoxy-4-(morpholinomethyl)phenyl]-1H-pyrazol-3-yl]amino]pyrazine-2-carbonitrile] | 0.16 | 957 | 300 | 10 |  | 
COc1cc(OC2CCN(C)CC2)ccc1-c1cc(Nc2cnc(C#N)cn2)n[nH]1 [Example 28, 5-[[5-[2-methoxy-4-[(1-methyl-4-piperidyl)oxy]phenyl]-1H-pyrazol-3-yl]amino]pyrazine-2-carbonitrile hydrochloride] | 0.13 |  | <100 | <3 |  | 279
CCN1CC[C@@H](OCc2ccc(-c3cc(Nc4cnc(C#N)cn4)n[nH]3)c(OC)c2)C1 [Example 140, 5-[[5-[4-[[(3R)-1-ethylpyrrolidin-3-yl]oxymethyl]-2-methoxy-phenyl]-1H-pyrazol-3-yl]amino]pyrazine-2-carbonitrile hydrochloride] | 0.021 |  | <300 | <10 |  | 618
